Data from ChEMBL document CHEMBL1201862, “PubChem BioAssay data set” (2004).
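Exposure lasted 48 hours, with cells grown in 96-well plates and compounds tested at five concentrations. The concentration for 50% growth inhibition is given as GI50.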 Calls of active or inactive are those of the source. Cut-off read from the data, not from the text of the source: active = GI50 up to about 1.1 µM and inactive = higher.

Tests used:
Test in all cases: growth of human tumour cells (NCI), 48 h
SNB-19 = test system: SNB-19
CAKI-1 = test system: CAKI-1
SN12C = test system: SN12C
SF-539 = test system: SF-539
OVCAR-8 = test system: OVCAR-8
MDA-MB-435 = test system: MDA-MB-435
COLO 205 = test system: COLO 205
SR = test system: SR
OVCAR-3 = test system: OVCAR-3
HCT-116 = test system: HCT-116
MOLT-4 = test system: MOLT-4
CCRF-CEM = test system: CCRF-CEM
NCI-H522 = test system: NCI-H522
RPMI-8226 = test system: RPMI-8226
T47D = test system: T47D
A549 = test system: A549
IGROV-1 = test system: IGROV-1
SK-MEL-28 = test system: SK-MEL-28
NCI/ADR-RES = test system: NCI/ADR-RES
SF-268 = test system: SF-268
HL-60 = test system: HL-60
KM12 = test system: KM12
OVCAR-4 = test system: OVCAR-4
SW-620 = test system: SW-620
M14 = test system: M14
TK-10 = test system: TK-10
MDA-MB-231 = test system: MDA-MB-231
LOX IMVI = test system: LOX IMVI
UACC-257 = test system: UACC-257
HOP-92 = test system: HOP-92
NCI-H23 = test system: NCI-H23
HCC 2998 = test system: HCC 2998
786-0 = test system: 786-0
SF-295 = test system: SF-295
OVCAR-5 = test system: OVCAR-5
Malme-3M = test system: Malme-3M
ACHN = test system: ACHN
HCT-15 = test system: HCT-15
UACC-62 = test system: UACC-62
BT-549 = test system: BT-549
HOP-62 = test system: HOP-62
U-251 = test system: U-251
PC-3 = test system: PC-3
Hs-578T = test system: Hs-578T
SNB-75 = test system: SNB-75
DU-145 = test system: DU-145
K562 = test system: K562
SK-OV-3 = test system: SK-OV-3
HT-29 = test system: HT-29
MDA-N = test system: MDA-N
MCF7 = test system: MCF7
SK-MEL-5 = test system: SK-MEL-5
EKVX = test system: EKVX
NCI-H460 = test system: NCI-H460
UO-31 = test system: UO-31
A498 = test system: A498
NCI-H226 = test system: NCI-H226
SK-MEL-2 = test system: SK-MEL-2
RXF 393 = test system: RXF 393

CNC(=S)Nc1ccc(OC)c2ccccc12 was tested, and the GI50 (SNB-19) was > 10 µM (inactive), the GI50 (CAKI-1) was > 10 µM (inactive) and the GI50 (SN12C) was > 10 µM (inactive). For the same molecule, the GI50 (SF-539) was > 10 µM (inactive), the GI50 (OVCAR-8) was > 10 µM (inactive) and the GI50 (MDA-MB-435) was > 10 µM (inactive). For the same molecule, the GI50 (COLO 205) was > 10 µM (inactive), the GI50 (SR) was > 10 µM (inactive) and the GI50 (OVCAR-3) was 2.88 µM (inactive). For the same molecule, the GI50 (HCT-116) was > 10 µM (inactive), the GI50 (MOLT-4) was > 10 µM (inactive) and the GI50 (CCRF-CEM) was > 10 µM (inactive). For the same molecule, the GI50 (NCI-H522) was > 10 µM (inactive), the GI50 (RPMI-8226) was > 10 µM (inactive) and the GI50 (T47D) was > 10 µM (inactive). The GI50 (A549) was > 10 µM (inactive), the GI50 (IGROV-1) was > 10 µM (inactive) and the GI50 (SK-MEL-28) was > 10 µM (inactive). The GI50 (NCI/ADR-RES) was > 10 µM (inactive), the GI50 (SF-268) was > 10 µM (inactive) and the GI50 (HL-60) was > 10 µM (inactive). For the same molecule, the GI50 (KM12) was > 10 µM (inactive), the GI50 (OVCAR-4) was > 10 µM (inactive) and the GI50 (SW-620) was > 10 µM (inactive). For the same molecule, the GI50 (M14) was > 10 µM (inactive), the GI50 (TK-10) was > 10 µM (inactive) and the GI50 (MDA-MB-231) was > 10 µM (inactive). For the same molecule, the GI50 (LOX IMVI) was > 10 µM (inactive), the GI50 (UACC-257) was > 10 µM (inactive) and the GI50 (HOP-92) was > 10 µM (inactive). For the same molecule, the GI50 (NCI-H23) was > 10 µM (inactive), the GI50 (HCC 2998) was > 10 µM (inactive) and the GI50 (786-0) was > 10 µM (inactive). For the same molecule, the GI50 (SF-295) was 2.04 µM (inactive), the GI50 (OVCAR-5) was > 10 µM (inactive) and the GI50 (Malme-3M) was > 10 µM (inactive). For the same molecule, the GI50 (ACHN) was > 10 µM (inactive), the GI50 (HCT-15) was > 10 µM and the GI50 (UACC-62) was > 10 µM (inactive). The GI50 (BT-549) was > 10 µM (inactive), the GI50 (HOP-62) was > 10 µM (inactive) and the GI50 (U-251) was > 10 µM (inactive). The GI50 (PC-3) was > 10 µM (inactive), the GI50 (Hs-578T) was > 10 µM (inactive) and the GI50 (SNB-75) was 4.43 µM (inactive). The GI50 (DU-145) was > 10 µM (inactive), the GI50 (K562) was > 10 µM (inactive) and the GI50 (SK-OV-3) was > 10 µM (inactive). For the same molecule, the GI50 (HT-29) was > 10 µM (inactive), the GI50 (MDA-N) was > 10 µM (inactive) and the GI50 (MCF7) was > 10 µM (inactive). For the same molecule, the GI50 (SK-MEL-5) was > 10 µM (inactive).

OC(c1ccccc1)(c1ccccc1)c1nccc2ccccc12 was tested, and the GI50 (SNB-19) was 27.9 µM (inactive), the GI50 (CAKI-1) was 20.1 µM (inactive) and the GI50 (SN12C) was 44.5 µM (inactive). For the same molecule, the GI50 (OVCAR-8) was 37.8 µM (inactive), the GI50 (MDA-MB-435) was 30.8 µM (inactive) and the GI50 (COLO 205) was 28.1 µM (inactive). The GI50 (SR) was 37.8 µM (inactive), the GI50 (OVCAR-3) was 17.2 µM (inactive) and the GI50 (HCT-116) was 27.9 µM (inactive). For the same molecule, the GI50 (MOLT-4) was 16.7 µM (inactive), the GI50 (CCRF-CEM) was 23.6 µM (inactive) and the GI50 (NCI-H522) was 16.7 µM (inactive). For the same molecule, the GI50 (RPMI-8226) was 38.3 µM (inactive), the GI50 (EKVX) was 20.7 µM (inactive) and the GI50 (T47D) was 27.3 µM (inactive). The GI50 (A549) was 36.9 µM (inactive), the GI50 (IGROV-1) was 40 µM (inactive) and the GI50 (SK-MEL-28) was 22.6 µM (inactive). The GI50 (NCI/ADR-RES) was 34.6 µM (inactive), the GI50 (SF-268) was 44.2 µM (inactive) and the GI50 (NCI-H460) was 17.3 µM (inactive). The GI50 (HL-60) was 32.3 µM (inactive), the GI50 (KM12) was 35.9 µM (inactive) and the GI50 (OVCAR-4) was 31.6 µM (inactive). For the same molecule, the GI50 (M14) was 20.8 µM (inactive), the GI50 (TK-10) was 12.9 µM (inactive) and the GI50 (UO-31) was 17.8 µM (inactive). For the same molecule, the GI50 (MDA-MB-231) was 37.7 µM (inactive), the GI50 (LOX IMVI) was 17.6 µM (inactive) and the GI50 (UACC-257) was 31 µM (inactive). For the same molecule, the GI50 (NCI-H23) was 20.8 µM (inactive), the GI50 (786-0) was 55 µM (inactive) and the GI50 (SF-295) was 15.8 µM (inactive). The GI50 (OVCAR-5) was 31.7 µM (inactive), the GI50 (Malme-3M) was 30 µM (inactive) and the GI50 (ACHN) was 37.6 µM (inactive). The GI50 (HCT-15) was 37.3 µM, the GI50 (UACC-62) was 21.5 µM (inactive) and the GI50 (BT-549) was 14.3 µM (inactive). For the same molecule, the GI50 (HOP-62) was 18.9 µM (inactive), the GI50 (U-251) was 29.3 µM (inactive) and the GI50 (PC-3) was 22.2 µM (inactive). The GI50 (Hs-578T) was 28.5 µM (inactive), the GI50 (DU-145) was 41.7 µM (inactive) and the GI50 (K562) was > 10 µM (inactive). The GI50 (SK-OV-3) was 22.5 µM (inactive), the GI50 (HT-29) was 26.8 µM (inactive) and the GI50 (MDA-N) was 30.1 µM (inactive). The GI50 (MCF7) was 35.2 µM (inactive) and the GI50 (SK-MEL-5) was 14.1 µM (inactive).

For O=c1[nH]nc(Cc2c[nH]c3ccccc23)o1, the GI50 (SNB-19) was > 100 µM (inactive), the GI50 (CAKI-1) was > 100 µM (inactive) and the GI50 (SN12C) was > 100 µM (inactive). The GI50 (SF-539) was > 100 µM (inactive), the GI50 (OVCAR-8) was > 100 µM (inactive) and the GI50 (MDA-MB-435) was > 100 µM (inactive). The GI50 (COLO 205) was > 100 µM (inactive), the GI50 (OVCAR-3) was > 100 µM (inactive) and the GI50 (HCT-116) was > 100 µM (inactive). For the same molecule, the GI50 (MOLT-4) was > 100 µM (inactive), the GI50 (CCRF-CEM) was > 100 µM (inactive) and the GI50 (NCI-H522) was > 100 µM (inactive). For the same molecule, the GI50 (RPMI-8226) was > 100 µM (inactive), the GI50 (EKVX) was > 100 µM (inactive) and the GI50 (T47D) was > 100 µM (inactive). The GI50 (A549) was > 100 µM (inactive), the GI50 (IGROV-1) was > 100 µM (inactive) and the GI50 (SK-MEL-28) was > 100 µM (inactive). The GI50 (NCI/ADR-RES) was > 100 µM (inactive), the GI50 (SF-268) was > 100 µM (inactive) and the GI50 (HL-60) was > 100 µM (inactive). For the same molecule, the GI50 (KM12) was > 100 µM (inactive), the GI50 (OVCAR-4) was > 100 µM (inactive) and the GI50 (SW-620) was > 100 µM (inactive). The GI50 (M14) was > 100 µM (inactive), the GI50 (TK-10) was > 100 µM (inactive) and the GI50 (UO-31) was > 100 µM (inactive). For the same molecule, the GI50 (MDA-MB-231) was > 100 µM (inactive), the GI50 (LOX IMVI) was > 100 µM (inactive) and the GI50 (UACC-257) was > 100 µM (inactive). For the same molecule, the GI50 (HOP-92) was > 100 µM (inactive), the GI50 (NCI-H23) was > 100 µM (inactive) and the GI50 (HCC 2998) was > 100 µM (inactive). For the same molecule, the GI50 (786-0) was > 100 µM (inactive), the GI50 (A498) was > 100 µM (inactive) and the GI50 (SF-295) was > 100 µM (inactive). For the same molecule, the GI50 (NCI-H226) was > 100 µM (inactive), the GI50 (OVCAR-5) was > 100 µM (inactive) and the GI50 (Malme-3M) was > 100 µM (inactive). For the same molecule, the GI50 (ACHN) was > 100 µM (inactive), the GI50 (HCT-15) was > 100 µM and the GI50 (UACC-62) was > 100 µM (inactive). For the same molecule, the GI50 (BT-549) was > 100 µM (inactive), the GI50 (HOP-62) was > 100 µM (inactive) and the GI50 (U-251) was > 100 µM (inactive). For the same molecule, the GI50 (PC-3) was > 100 µM (inactive), the GI50 (Hs-578T) was > 100 µM (inactive) and the GI50 (DU-145) was > 100 µM (inactive). The GI50 (K562) was > 100 µM (inactive), the GI50 (HT-29) was > 100 µM (inactive) and the GI50 (SK-MEL-2) was > 100 µM (inactive). The GI50 (MDA-N) was > 100 µM (inactive), the GI50 (RXF 393) was > 100 µM (inactive) and the GI50 (MCF7) was > 100 µM (inactive). For the same molecule, the GI50 (SK-MEL-5) was > 100 µM (inactive).
